Literature values, collected in patent publication US12714758B2, “DOTA-hapten compositions for anti-DOTA/anti-tumor antigen bispecific antibody pretargeted radioimmunotherapy” (Memorial Sloan Kettering Cancer Center, priority 2020, dated 2026).

Test system: GD2
Details: 24 hours post-injection

blood uptake: 0.49±0.09 % ID/g
kidney uptake: 0.83±0.10 % ID/g
tumor uptake (average±SD, n=5): 10.29±2.87 % ID/g
Substance: ^177Lu-S-2-(4-aminobenzyl)-1,4,7,10-tetraazacyclododecane tetraacetic acid chelate [^177Lu-DOTA-Bn]
